Laboratory results as given in US11654292B2 (priority 2017, dated 2023).
Read-outs that look alike come from different tables or passages of the source.

Experiments:
[1] = system: MCF-10a normal breast epithelial cells; experiment: Cell lysis, digoxin with 80 mT pulsed magnetic field in solenoid; type: cell-based; conditions: 100 nM digoxin + 80 mT magnetic pulses at 25 Hz
Text: (§1) Tubes were placed in an 8″1X 2.5″dia. solenoid with 697 turns (500 ft.) of 12 ga copper wire. A 5VDC current from an AE Techron 7224 DC-extended AC amplifier pulsed at 25 Hz, with a 10 msec ramp and fall, controlled by a Techtronics AFG 3021B waveform generator produced 80 mT magnetic pulses in the solenoid.

[2] = system: MDA-MB-231 breast cancer cells; experiment: as above; type: cell-based; conditions: 100 nM digoxin + 80 mT magnetic pulses at 25 Hz, within 10 min
Text: as §1

[3] = system: MDA-MB-231 cells; experiment: Stimulus intensity-response curve of pulsed magnetic field for cell lysis; type: cell-based; conditions: 500 nM digoxin, PMF stimulus intensity 80 mT (FIG. 1)
Description: FIG. 1 Stimulus intensity—response curve to determine the strength of the pulsed magnetic field necessary to produce cell lysis of MDA-MB-231 cells, in vitro (p<0.01).
A study was conducted where cells were pulsed with an increasing stimulus intensity to determine the strength of the pulsed magnetic field necessary to produce cell lysis of MDA-MB-231 cells in vitro. […] All tubes were exposed to a 0 to 80 mT PMF.

[4] = system: MDA-MB-231 cells; experiment: Sodium dependence of TOL in Ringer's solution with or without sodium; type: cell-based; conditions: Homo sapiens, MDA-MB-231, 10 min
Description: FIG. 2 TOL is dependent on the presence of sodium.
A study was conducted where the culture media containing MDA-MB-231 cells was replaced with Ringer's solution with or without sodium and then stimulated with pulsed magnetic fields of 80 mT for 10 minutes. Cells were transferred to microfuge tubes containing either Ringers +Na^+ or Ringers−Na^+.

[5] = system: MDA-MB-231 xenografts; experiment: In vivo TOL (digoxin + PMF) in mice with MDA-MB-231 xenografts; parameters: species or system J/Nu mice
Description: This protocol establishes steady-state pharmacokinetics in even poorly vascularized tissues. The mice were exposed to the pulsed magnetic field, using the same parameters as with the cultured cells, for 15 min starting 30 min after the last injection. This treatment was repeated two and four days after the first treatment. Mice were sacrificed and fixed with 4% paraformaldehyde 24 hrs after the third treatment. Tissues from these animals were sectioned and evaluated by a pathologist that was blind to the treatment.

[6] = system: mouse breast cancer, 4T1, cells; experiment: In vivo TOL (digoxin + PMF) in immune competent mice with 4T1 tumors; parameters: species or system BALBc mice; conditions: 7 mg/kg digoxin s.c. x5 + PMF 30 min on day 0, 2 and 4 (TOL), FIG. 7
Description: FIG. 7A. […] Arrows indicate days of treatment; 7B. […] Thus, the life expectancy of mice treated with TOL exceeds that of controls by approximately 1 week.
This treatment was administered on day 0 (first day of treatment), on day 2 and on day 4. Mice were monitored for tumor growth and were sacrificed when they met the NIH criteria for humane endpoint euthanasia.

[7] = system: MDA-MB-231 cells; experiment: Trypan Blue estimate of cell lysis, ouabain with or without pulsed z-gradient magnetic field (MRI); type: cell-based
Description: Two tubes of MDA-MB-231 cells were prepared. The media in one tube was replaced by media containing 100 nM ouabain to block the sodium pumps. Both tubes were placed in the MRI and offset from center by 317 mm in the z-gradient field and exposed to the pulsed magnetic field. The samples were then repositioned and imaged.
After imaging, the cells in each vial were stained with Trypan Blue to estimate the number of cells that had been lysed by each treatment: (A) magnetic stimulation alone or (B) ouabain and magnetic stimulation. Virtually all of the cells that had only been exposed to pulsed magnet field stimulation were alive (expelled the Trypan Blue stain) and 10-15% of the cells that had been simultaneously treated with ouabain and pulse magnetic field stimulation were dead (appeared shrunken and retained the stain).
In this example, cells were exposed to ouabain for over 60 min during the preparation for the magnetic field stimulation. Because lysis may occur in a small percentage of cells when exposed to ouabain alone, a study was conducted where a vial of cells was exposed to ouabain without pulsed field stimulation for greater than 90 min.
The duration, amplitude and frequency of the pulsed z-gradient field was varied. All targeted osmotic lysis (TOL) vials (ouabain and pulsed magnetic field stimulation) were exposed to 100 nM ouabain for 10 min. Ouabain-treated and normal MDA-MB 231 control vials were exposed to the same pulsed magnetic field and then stained with Trypan Blue to estimate the amount of cell lysis in each tube. Two trials were conducted using the maximum field strength available (289.1689 Amp). The pulsed stimulus for the first of these trials was delivered with a rise time of 10 msec, a 2.5 msec return to baseline and an inter-stimulus interval of 17.5 msec; the stimulus was pulsed with a rise time of 10 msec, a 2.5 msec return to baseline and an inter-stimulus interval of 7.5 msec for the second trial. […]

| Structure (SMILES) | cell lysis when stimulated [1] | cells lysed [2] [%] | cell lysis [3] [%] | cytotoxicity at 0.5 µM ([4]; read-out: non-viable cells, 500 nM digoxin + 80 mT PMF 10 min (Dig-PMF), Ringers +Na+ (FIG. 2)) [%] | cytotoxicity at 0.5 µM ([4]; read-out: non-viable cells, 500 nM digoxin + 80 mT PMF 10 min (Dig-PMF), Ringers without sodium (FIG. 2)) [%] | tumor lysis ([5]; 5 mg/kg digoxin s.c. five times at 1 hr intervals + PMF 15 min, three treatments (TOL)) | median tumor necrosis score (grade 1-5) vs controls ([5]; 5 mg/kg digoxin s.c. x5 + PMF (TOL), FIG. 4, p<0.05) | tumor histology, drug-only control vs untreated controls ([5]; 5 mg/kg digoxin s.c. x5, no magnetic stimulation) | tumor growth rate vs controls ([5]; TOL (Dig-PMF), FIG. 6) | time to reach humane endpoint euthanasia criteria vs control groups [6] | cell lysis, kill rate ([7]; 100 nM ouabain 10 min + pulsed z-gradient field, amplitude 289.1689, inter-pulse interval 7.5 msec (50 Hz)) | cells dead (retained Trypan Blue stain) ([7]; 100 nM ouabain (over 60 min) + pulsed z-gradient magnetic field 5 min, amplitude 187.5973, inter-stimulus interval 17.5 msec) | cells dead ([7]; ouabain alone, no pulsed field stimulation, greater than 90 min) |
| --- | --- | --- | --- | --- | --- | --- | --- | --- | --- | --- | --- | --- | --- |
| C[C@H]1O[C@@H](O[C@H]2[C@@H](O)C[C@H](O[C@H]3[C@@H](O)C[C@H](O[C@H]4CC[C@@]5(C)[C@H](CC[C@@H]6[C@@H]5C[C@@H](O)[C@]5(C)[C@@H](C7=CC(=O)OC7)CC[C@]65O)C4)O[C@@H]3C)O[C@@H]2C)C[C@H](O)[C@@H]1O [digoxin] | Neither digoxin-treated nor untreated MCF-10a cells lysed | 97.5 | ~100 | ~70 | < 20 | 80-100% | significantly greater | did not differ from untreated controls | significantly slower | significantly longer | – | – | – |
| C[C@@H]1O[C@@H](O[C@H]2C[C@@H](O)[C@]3(CO)[C@H]4[C@H](O)C[C@]5(C)[C@@H](C6=CC(=O)OC6)CC[C@]5(O)[C@@H]4CC[C@]3(O)C2)[C@H](O)[C@H](O)[C@H]1O [ouabain] | – | – | – | – | – | – | – | – | – | – | 80-90% | 10-15% | Less than 1% |
